Assay results taken from PMC8237267 (Journal of Medicinal Chemistry, 2021).

Experiments:
HDAC6 = target: T1, HDAC6 (Homo sapiens, UniProt Q9UBN7); assay: Time-dependent IC50 assay with preincubation (0-6 h); format: biochemical; settings: 6 h time-dependent assay
T1 sequence (Q9UBN7 1-1215): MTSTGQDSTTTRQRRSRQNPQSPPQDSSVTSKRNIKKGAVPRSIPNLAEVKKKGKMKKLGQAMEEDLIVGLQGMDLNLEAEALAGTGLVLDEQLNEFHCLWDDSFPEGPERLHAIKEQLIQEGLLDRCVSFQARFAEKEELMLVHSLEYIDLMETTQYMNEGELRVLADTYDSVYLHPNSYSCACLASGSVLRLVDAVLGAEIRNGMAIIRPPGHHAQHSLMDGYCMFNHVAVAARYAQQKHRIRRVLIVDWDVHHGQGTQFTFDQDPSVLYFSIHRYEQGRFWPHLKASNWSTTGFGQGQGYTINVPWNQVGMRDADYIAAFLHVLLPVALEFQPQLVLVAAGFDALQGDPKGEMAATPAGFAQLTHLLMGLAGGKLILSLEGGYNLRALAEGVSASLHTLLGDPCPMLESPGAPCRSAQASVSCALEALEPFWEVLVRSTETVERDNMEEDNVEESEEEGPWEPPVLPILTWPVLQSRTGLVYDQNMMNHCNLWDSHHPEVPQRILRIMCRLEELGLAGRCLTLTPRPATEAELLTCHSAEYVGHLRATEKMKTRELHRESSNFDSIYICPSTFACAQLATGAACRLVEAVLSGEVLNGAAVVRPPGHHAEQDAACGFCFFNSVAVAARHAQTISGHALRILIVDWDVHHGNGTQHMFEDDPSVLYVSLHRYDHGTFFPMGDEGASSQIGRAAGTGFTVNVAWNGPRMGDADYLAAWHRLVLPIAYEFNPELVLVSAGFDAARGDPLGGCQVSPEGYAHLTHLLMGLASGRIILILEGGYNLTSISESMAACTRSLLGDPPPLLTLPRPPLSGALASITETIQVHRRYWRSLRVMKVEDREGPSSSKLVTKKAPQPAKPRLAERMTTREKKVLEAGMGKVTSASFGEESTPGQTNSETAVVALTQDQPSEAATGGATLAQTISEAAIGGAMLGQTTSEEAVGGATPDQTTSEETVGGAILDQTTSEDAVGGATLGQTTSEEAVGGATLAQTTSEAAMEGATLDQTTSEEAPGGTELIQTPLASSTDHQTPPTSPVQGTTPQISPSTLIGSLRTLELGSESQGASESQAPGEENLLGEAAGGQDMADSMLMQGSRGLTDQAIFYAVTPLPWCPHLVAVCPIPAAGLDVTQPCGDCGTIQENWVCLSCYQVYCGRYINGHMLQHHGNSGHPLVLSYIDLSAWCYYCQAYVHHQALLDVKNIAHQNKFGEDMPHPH
Protocol: The binding kinetics profile of KT-531 was also investigated by determining the association (kon)/dissociation (koff) rates as well as residence time parameters. The in vitro residence time (1/kobs) for the KT-531–HDAC6 complex was determined to be 23.18 min, as compared to 10.72 min for 1.

acetylated α-tubulin = assay: Western blot in MV4-11 cells; format: cell-based; settings: MV4-11, 6 h, higher inhibitor concentrations
Protocol: Briefly, MV4-11 cells were incubated with inhibitors prior to cell lysis with radioimmunoprecipitation assay (RIPA) buffer (20 mM Tris pH 7.4, 150 mM NaCl, 0.5% deoxycholate, 1% Triton X-100, and 0.1% sodium dodecyl sulfate (SDS)). Total protein content was determined through a BCA assay (ThermoFisher), resolved via a 4–20% polyacrylamide SDS gel, and transferred to a nitrocellulose membrane (Bio-Rad). The membranes were blocked with a 5% solution (skimmed milk powder in PBS-T). This was followed by incubation at 4 °C (overnight) with the following antibodies: acetylated α-tubulin mouse monoclonal (MABT868, EMD Millipore), acetylated histone H3 (Ac-Lys18, 07–354, Sigma), PARP-1 (ab227244, Abcam), apoptosis Western blot cocktail (136812, Abcam), cleaved PARP-1 (ab32561, Abcam), and HSC70 (sc-7298, Santa Cruz). Following overnight incubation, horseradish peroxidase (HRP)-conjugated goat anti-mouse IgG secondary antibody (7076, Cell Signaling) or HRP-linked anti-rabbit IgG secondary antibody (7074, Cell Signaling) was applied to the membrane in a 1:5000 dilution. The bands were visualized using clarity Western ECL substrate luminal/enhancer solution and peroxide solution. Western blotting analysis was carried out using Image lab software (Bio-Rad).[47],[50],[70]

acetylation of α-tubulin = assay: Immunofluorescence assay in HeLa cells; format: cell-based; settings: 6 h, increasing doses
Protocol: (§1) HeLa cells were plated to subconfluency on a 96-well plate (clear bottom black from Fisher Scientific). As above, inhibitors were introduced following 24 h. The cells were washed with 1× PBS, fixed with 4% formaldehyde (Millipore Sigma), permeabilized with 1% Triton X-100 (Millipore Sigma), and blocked in 5% bovine serum albumin (BSA) (BioShop) for 1 h at room temperature. Following this treatment, the cells were incubated in a cocktail composed of acetylated α-tubulin mouse monoclonal (1:100 dilution, MD Millipore) and acetylated histone H3 (1:50 dilution, Ac-Lys18, Sigma) antibodies. Secondary antibodies anti-mouse Alexa Fluor 647 and anti-rabbit Alexa Fluor 488 were used for immunofluorescent detection. Cells were counterstained for nucleic acids using 4′,6-diamidino-2-phenylindole (DAPI) (ThermoFisher Scientific). The cells were imaged with a Cytation S63 spectrophotometer and the fluorescence intensity was determined using ImageJ (n = 3). Two-way ANOVA with Tukey’s multiple comparisons test were performed using GraphPad Prism 6.0 (GraphPad Software Inc.). A p-value ≤ 0.05 was considered significant.

[1] = test system: acetylation of histone H3; assay: Immunofluorescence assay in HeLa cells; format: cell-based; settings: 6 h, increasing doses
Protocol: as §1

MV4-11 cells = assay: FACS apoptosis detection assay (Annexin V/PI); format: cell-based; settings: MV4-11, 18 h, listed as KT-531
Protocol: MV4-11 cells were prepared, dosed, and washed with cold 1× PBS. The resulting cell pellets were resuspended in 1× Binding Buffer (1 × 10^6 cell/mL) from the FITC Annexin V Apoptosis Detection Kit I (BD Pharmingen). Subsequently, the dyes annexin V (5 μL) and propidium iodide (PI, 5 μL) were added to 2.5 × 10^5 cells (250 μL). The suspension was thoroughly mixed and incubated in the dark for 15 min. Following the addition of 250 μL of 1× binding buffer, the cells were analyzed by flow cytometry within 1 h using the Cytoflex S system (Beckman Coulter).

## O=C(NO)c1ccc(CN(C2CC2)S(=O)(=O)c2cc(F)c(F)c(F)c2F)cc1 [Compound 14, 4-(((N-Cyclopropyl-2,3,4,5-tetrafluorophenyl)sulfonamido)methyl)-N-hydroxybenzamide]
HDAC6
  reversibility of binding (IC50 over preincubation time): unchanged IC50 values
Acetylated α-tubulin
  acetylated α-tubulin levels (Western blot): comparable between citarinostat and KT-531
Acetylation of α-tubulin
  acetylation of α-tubulin (immunofluorescence): significant acetylation of α-tubulin was observed
[1]
  acetylation of histone H3 (immunofluorescence): no observable change in acetylation of histone H3
MV4-11 cells; 0.5 μM
  Early Apoptosis: 15%
MV4-11 cells; 1 μM
  Late Apoptosis: 22%
MV4-11 cells; 2 μM
  Healthy (nonapoptotic): 8%
